Assay results as given in patent US9872861B2, “Methods of treatment using selective Bcl-2 inhibitors” (AbbVie Inc., priority 2010, dated 2018).
Marks after values point to notes of the source that are not given here.

Key:
[1] = tested on: IFNα-induced (NZB×NZW)F1 lupus model; assay: IFNα-induced (NZB×NZW)F1 lupus model: proteinuria, survival, lymphopenia; type: in vivo, (NZB×NZW)F1 mice
Experimental: (§1) Treatment was initiated in a late-prophylactic mode (7 days after IFNα adenovirus). […] All treatment groups were administered treatment 7 days after adenovirus injection. Following adenovirus injection, mice were monitored weekly for proteinuria (PU) using Albustix test strips (VWR). Severe PU was defined by consecutive weekly measurements of PU≧300 mg/dl. When mice became moribund, they were sacrificed according to Institutional Animal Care and Use Committee protocols.

[2] = tested on: peripheral blood immune cells and platelets; assay: Peripheral blood lymphocytes and platelets in (NZB×NZW)F1 mice, Cell Dyn hematology analyzer; type: in vivo; conditions: (NZB×NZW)F1 mice, four days, orally every day
IgG anti-ds DNA [3] = assay: Anti-ds DNA titer by ELISA in IFNα-accelerated lupus model; type: in vivo, (NZB×NZW)F1 mice; conditions: interferon-induced model, 3-30 mg/kg
Experimental: (§2) An additional experiment was performed to determine the effects of treatment with a selective Bcl-2 inhibitor on anti-DS DNA titer in the Interferon-α accelerated lupus model. Anti-dsDNA antibody levels were measured by ELISA and assigned arbitrary activity unit concentrations per ml relative to a standard plasma pool derived from proteinuric 9-10 month old NZB/W mice. ELISA assay was performed by coating plates with poly-L-lysine followed by calf-thymus DNA. Diluted mouse plasma was incubated and developed using anti-IgG HRP conjugated antibodies and the mean OD from duplicate wells was compared to a titrated standard curve of pooled high tittered anti-dsDNA plasma. The undiluted standard plasma pool was arbitrarily assigned a value of 1000 anti-dsDNA Units/ml. A linear regression analysis was then used to calculate the relative units of a given sample multiplied by the given dilution factor. The results of this experiment are illustrated in FIG. 10.

renal tissue = assay: Renal histology and immunohistochemistry in spontaneous lupus nephritis mice; type: in vivo, (NZB×NZW)F1 mice
Experimental: An experiment was performed to determine the extent to which the selective Bcl-2 inhibitors infiltrated the kidney tissue. Specifically, a histologic assessment of the penetration of selective Bcl-2 inhibitors into the renal tissue of spontaneous murine model for lupus was performed. The spontaneous murine model of lupus, as described in Example 3, was used for the histological assessment described herein. The kidneys were bisected and then fixed in 10% neutral-buffered formalin or cryopreserved (snap frozen). For H&E staining, 5-μm sections from paraffin-embedded tissues were semiquantitatively scored (0-4) by an experienced pathologist for glomerulonephritis and tubular changes (dilation and casts). For IgG immunohistochemistry, 5-μm cryosections were fixed with acetone, washed, and blocked with 10% normal goat serum. Sections were then incubated with FITC-conjugated goat anti-mouse IgG (Cappel/ICN Pharmaceuticals) or negative control HRP-goat IgG (Jackson ImmunoResearch Laboratories) and coverslipped using Vectashield with 4′,6-diamidino-2-phenylindole (Vector Laboratories). Sections were evaluated for severity of IgG deposition using a semiquantitative scoring system (from 0-4). To identify for B and T cells, immunohistochemistry for CD45R (B cells) and CD3 (T cells) was completed on paraffin sections. FIGS. 6 and 7 illustrate the results of the histological assessment, and FIG. 8 illustrates the effect of selective Bcl-2 inhibitor treatment on IgG deposition, B cells, and T cells in the kidneys.

Mcl-1 = Mcl-1 (Homo sapiens, UniProt Q07820); assay: TR FRET competitive binding affinity, Mcl-1; conditions: read-out: Target Affinity TR FRET, Mcl-1
Mcl-1, sequence (Q07820 whole entry): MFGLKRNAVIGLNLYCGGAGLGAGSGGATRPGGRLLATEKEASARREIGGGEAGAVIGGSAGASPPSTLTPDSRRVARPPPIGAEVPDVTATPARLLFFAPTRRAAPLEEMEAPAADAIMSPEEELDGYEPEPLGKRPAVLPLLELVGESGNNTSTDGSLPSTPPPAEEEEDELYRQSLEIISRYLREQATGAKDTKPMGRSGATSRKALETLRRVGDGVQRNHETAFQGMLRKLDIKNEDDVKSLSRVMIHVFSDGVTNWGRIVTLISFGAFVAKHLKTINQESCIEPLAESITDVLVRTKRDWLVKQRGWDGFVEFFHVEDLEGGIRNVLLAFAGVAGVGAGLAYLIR
Experimental: A comparison of the binding affinity for each of the compounds was performed to determine target affinity, as measured by Time-Resolved Fluorescence Resonance Energy Transfer (TR FRET).

IgG anti-ds DNA [4] = assay: Anti-ds DNA titer by ELISA in spontaneous lupus model; type: in vivo, (NZB×NZW)F1 mice
Experimental: as §2, with “It is believed that Compound 1 triggers apoptosis” for “An additional experiment was performed to determine the effects”, “lymphocytes that are responsible for production of antibodies, which play” for “treatment with”, “role” for “selective Bcl-2 inhibitor on anti-DS DNA titer”, “progression of systemic” for “Interferon-α accelerated”, “erythematosus, as well as Sjogren's Syndrome. […] Specifically, anti-dsDNA” for “model. Anti-dsDNA”, “factor.” for “factor. The results of this experiment are illustrated in FIG. 10.”

[5] = Exposure in IFNα-induced lupus model; type: in vivo
Experimental: as §1

[6] = tested on: cells dependent on Bcl-2 for survival; assay: Mechanism of cell killing (apoptosis hallmarks); type: cell-based
From the text: As also shown in Table 1B, additional compounds show selective binding affinity for Bcl-2 over Bcl-XL and other Bcl-2 family proteins.

FL5.12-Bcl-2 cells = assay: Cellular efficacy in FL5.12 cells dependent on Bcl-2; type: cell-based, murine; conditions: Mus musculus, 3% FBS
H146 cells = assay: Cellular efficacy in Bcl-XL dependent tumor cell line H146; type: cell-based; conditions: Homo sapiens, NCI-H146; 10% HS
[7] = tested on: submandibular salivary gland; assay: Salivary gland histology in spontaneous murine model of lupus; type: in vivo, (NZB×NZW)F1 mice
From the text: It is recognized within the art that Sjogren's Syndrome is a chronic disease state that affects the moisture-producing glands of the body, including the salivary glands of the mouth. As such, it was theorized that penetration of the selective Bcl-2 inhibitors into the salivary glands of patients with Sjogren's Syndrome could provide an effective treatment to decrease lymphocytes associated with Sjogren's Syndrome, without the dose-limiting thrombocytopenia associated with non-selective Bcl-2 inhibition. A histologic assessment of the penetration of selective Bcl-2 inhibitors into the salivary glands of spontaneous murine model for lupus was performed to test this theory. The spontaneous murine model of lupus, as described in Example 3, was used for the histological assessment described herein. Specifically, sublingual and submandibular salivary glands were fixed in 10% neutral-buffered formalin and paraffin embedded. Five μm sections were H&E stained and semiquantitatively scored (0-4) by an experienced pathologist for inflammatory cell infiltrates. Salivary gland infiltrate scoring categories: (1) 3 or fewer small periductular foci, (2) 3 or more medium sized foci, (3) several extensive foci, and (4) coalescing to diffuse infiltrates. The histologic assessment of the submandibular tissue sections is illustrated in FIG. 11.

RS4;11 cells = assay: Cellular efficacy in Bcl-2 dependent tumor cell line RS4;11; type: cell-based, human; conditions: 10% HS

In the case of `CC1(C)CCC(CN2CCN(c3ccc(C(=O)NS(=O)(=O)c4ccc(NCC5CCOCC5)c([N+](=O)[O-])c4)c(Oc4cnc5[nH]ccc5c4)c3)CC2)=C(c2ccc(Cl)cc2)C1` [Compound 1, 4-(4-{[2-(4-chlorophenyl)-4,4-dimethylcyclohex-1-en-1-yl]methyl}piperazin-1-yl)-N-({3-nitro-4-[(tetrahydro-2H-pyran-4-ylmethyl)amino]phenyl}sulfonyl)-2-(1H-pyrrolo[2,3-b]pyridin-5-yloxy)benzamide], the “lymphopenia in the blood throughout treatment” value ([1]; 30 mg/kg) is reported as over 70%, the “% Mice with PU < 300 mg/dL” value ([1]; 30 mg/kg/day orally) is reported as 77* % and the “% Survival” value ([1]; 30 mg/kg/day orally) is reported as 82* %. For the same molecule, the “onset of severe PU and survival” value ([1]; 30 and 100 mg/kg) was “significantly delayed the onset of severe PU and prolonged survival”, the “lymphocytes in peripheral blood” value [2] was “dose dependent decrease in lymphocytes” and the platelet counts [2] was “maintaining normal platelet counts”. The “anti-ds DNA titer” value (IgG anti-ds DNA [3]) was “did not significantly inhibit”, the “IgG deposition in renal tissue” value (renal tissue; 30 mg/kg) was “decrease in IgG deposition” and the “renal histology scores (glomerulonephritis, tubular changes, perivascular infiltrates)” value (renal tissue; 30 mg/kg and 100 mg/kg) was “statistically significant improvement”. The “B cell and T cell numbers in renal tissue” value (renal tissue; 100 mg/kg) was “decreases in B cell and T cell numbers”, the renal tissue infiltrates (renal tissue; 30 or 100 mg/kg) was “small, discrete and less frequent” and the Ki (Mcl-1) was over 440 nM. The “anti-ds DNA titer” value (IgG anti-ds DNA [4]; spontaneous model, 1, 3 and 10 mg/kg) was “no appreciable reduction”, the “anti-ds DNA titer vs vehicle control” value (IgG anti-ds DNA [4]; spontaneous model, week 40, 30 and 100 mg/kg) was “significantly inhibited the increase in anti-ds DNA titer” and the target efficacious exposure [5] was “approximately 40 μg·h/mL”. For the same molecule, the “hallmarks of apoptotic cell death” value [6] was “rapid cytochrome c release, caspase-3 and -7 activation, and membrane phosphatidylserine (PS) externalization”, the “caspase dependence of cell killing” value ([6]; ablated by pan caspase inhibitor z-VAD-fmk) was “caspase-dependent” and the EC50 (FL5.12-Bcl-2 cells) was 4 nM. The EC50 (H146 cells) was 3600 nM, the “submandibular salivary gland histology scores vs untreated” value ([7]; 30 mg/kg and 100 mg/kg) was “statistically significant improvement” and the “salivary gland histology score” value ([7]; 30 mg/kg and 100 mg/kg, scale 0-4, untreated mice 3-4) was 1-2. For the same molecule, the salivary gland infiltrates ([7]; 30 or 100 mg/kg) was “small, discrete and less frequent” and the EC50 (RS4;11 cells) was 12 nM.
